The record followed here is ChEMBL document CHEMBL2074093, “The predominant contribution of oligopeptide transporter PepT1 to intestinal absorption of beta-lactam antibiotics in the rat small intestine” (J Pharm Pharmacol, 1997).

In the experiment the target is T1, Solute carrier family 15 member 1 (Rattus norvegicus) (UniProt P51574).
T1 sequence (whole entry): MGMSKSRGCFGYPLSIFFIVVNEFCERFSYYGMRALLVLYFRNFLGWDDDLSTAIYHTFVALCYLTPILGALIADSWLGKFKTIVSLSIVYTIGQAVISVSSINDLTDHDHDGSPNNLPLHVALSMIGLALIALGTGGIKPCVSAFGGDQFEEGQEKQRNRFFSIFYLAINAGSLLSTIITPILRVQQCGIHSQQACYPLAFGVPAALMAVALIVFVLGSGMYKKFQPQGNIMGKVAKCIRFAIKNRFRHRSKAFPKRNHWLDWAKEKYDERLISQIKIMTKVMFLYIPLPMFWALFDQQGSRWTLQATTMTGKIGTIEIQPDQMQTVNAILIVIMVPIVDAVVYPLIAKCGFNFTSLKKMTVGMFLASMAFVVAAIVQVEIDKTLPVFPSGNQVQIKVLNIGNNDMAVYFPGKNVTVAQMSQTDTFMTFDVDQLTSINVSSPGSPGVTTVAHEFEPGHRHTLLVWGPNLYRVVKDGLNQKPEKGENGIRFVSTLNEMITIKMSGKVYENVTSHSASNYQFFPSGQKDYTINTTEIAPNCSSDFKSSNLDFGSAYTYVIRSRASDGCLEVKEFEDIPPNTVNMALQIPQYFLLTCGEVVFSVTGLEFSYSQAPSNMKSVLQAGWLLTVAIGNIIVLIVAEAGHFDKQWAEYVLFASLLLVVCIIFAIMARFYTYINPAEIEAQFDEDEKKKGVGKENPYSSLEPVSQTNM
Put plainly: TP_TRANSPORTER: uptake in Xenopus laevis oocytes. The experiment is classed as functional, cell-based. The note with it: Oocyte.
As to `CC1=C(C(=O)O)N2C(=O)[C@@H](NC(=O)[C@H](N)c3ccc(O)cc3)[C@H]2SC1`, the Activity entry is “substrate [+]”.
Turning to `CC1=C(C(=O)O)N2C(=O)[C@@H](NC(=O)[C@H](N)c3ccccc3)[C@H]2SC1`, the Activity entry was “substrate [+]”.
On to `C=CC1=C(C(=O)O)N2C(=O)[C@@H](NC(=O)/C(=N\OCC(=O)O)c3csc(N)n3)[C@H]2SC1`, for which the Activity entry was “substrate [+]”.
